The values below come from paper PMC10914475 (iScience, 2024).

This assay addresses SfCht5 (S. frugiperda chitinase 5; rSfCht5) (Spodoptera frugiperda, UniProt A0A8K1Z7B3). Nature of the assay: residual endochitinase activity with synthetic substrate. The assay is classed as biochemical.

The structures appear in SMILES notation.

The term IC50 denotes the point on the concentration scale where inhibition reaches its midpoint.

SfCht5 (S. frugiperda chitinase 5; rSfCht5), sequence (A0A8K1Z7B3 21-555): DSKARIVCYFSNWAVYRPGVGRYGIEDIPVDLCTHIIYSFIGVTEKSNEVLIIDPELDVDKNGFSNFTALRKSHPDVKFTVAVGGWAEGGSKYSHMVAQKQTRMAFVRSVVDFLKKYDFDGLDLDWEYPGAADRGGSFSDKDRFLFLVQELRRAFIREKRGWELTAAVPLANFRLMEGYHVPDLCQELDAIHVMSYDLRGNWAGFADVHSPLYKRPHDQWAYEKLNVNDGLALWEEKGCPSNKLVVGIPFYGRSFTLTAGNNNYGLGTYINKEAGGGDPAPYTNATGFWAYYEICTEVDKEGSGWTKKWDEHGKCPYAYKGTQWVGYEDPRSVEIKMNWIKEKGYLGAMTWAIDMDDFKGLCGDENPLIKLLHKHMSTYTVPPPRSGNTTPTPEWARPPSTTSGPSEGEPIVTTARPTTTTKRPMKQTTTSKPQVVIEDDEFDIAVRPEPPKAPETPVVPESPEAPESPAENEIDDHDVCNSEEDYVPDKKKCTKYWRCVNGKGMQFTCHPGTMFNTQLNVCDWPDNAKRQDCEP

In the case of `COc1ccc2cc3[n+](cc2c1OC)CCc1cc2c(cc1-3)OCO2` [berberine, 9,10-Dimethoxy-5,6-dihydro-[1,3] dioxolo[4,5-g]isoquinolino[3,2-a]isoquinolin-7-ium chloride dihydrate], the IC50 is ~158 µM.
